The values below come from PMC9131456, “Structure-Based Discovery of Lipoteichoic Acid Synthase Inhibitors” (Journal of Chemical Information and Modeling, 2022).

Data set [1] deals with S. aureus (strain Newman). Kind of data set: Antimicrobial microdilution broth assay (growth inhibition). Format: cell-based. The following applies: for IC50: S. aureus strain Newman growth, OD600nm after 20 h at 37 °C, MH2 broth, mean ± s.e.m., n = 3. The procedure:
All the compounds tested in this study were dissolved in dimethyl sulfoxide (DMSO) at an initial stock concentration of 20 mM and stored at −20 °C. These compounds were tested for their antimicrobial activity using the microdilution broth method[66] following the protocol described by Richter et al.[30] Briefly, overnight cultures of S. aureus (strain Newman) grown at 37 °C in cation-adjusted Mueller Hinton II (MH2) broth were adjusted to an OD600nm of 0.6 before back-diluted with a factor of 1:2000 with the same broth. After that, 200 μL of the diluted bacterial culture were dispensed into each well of 96-well plates supplemented with the compounds to the desired concentrations. The plates were then sealed with a moisture membrane barrier and incubated statically for 20 h at 37 °C. After that, the OD600nm values of the cultures in each well were measured using a CLARIOstar microplate reader (BMG Labtech). The procedures for the potentiation assays were by large the same as described above with some variations. In such assays, MRSA strain COL was grown in the 96-well plates supplemented with different concentrations of compound 9 with methicillin, carbenicillin, or polymyxin B in a checkerboard format. Their synergistic effects were quantified by OD600nm measurements using a CLARIOstar microplate reader (BMG Labtech).

A further data set deals with HEK293 cells. The data set can be described thus: LDH release cytotoxicity assay. Format: cell-based, human. As to conditions: 200 μM compound, 24 h. The protocol:
The human embryonic kidney (HEK293) cells were maintained in Dulbecco’s modified Eagle medium (DMEM) supplemented with 10% fetal bovine serum and 100 units/mL of penicillin–streptomycin. For the cell viability assays, cells were seeded onto 96-well plates at a density of 4 × 10^4 cells/well and grown at 37 °C at 5% CO2. After incubating the cells for 24 h, the culture media were replaced with fresh DMEM supplemented with 200 μM of the compounds 1771, compound 4, compound 8, and compound 9 and incubated further for an additional 24 h. The cytotoxicity of these drugs was measured using the LDH Cytotoxicity Assay Kit according to the manufacturer’s instruction (Thermo Scientific). The absorbance at 490 nm was measured with a CLARIOstar microplate reader (BMG Labtech), and the reference wavelength was set at 630 nm.
(LDH leaks from cells whose membrane has failed.)

In data set [2] the test system is LTA production in S. aureus (strain RN4220). The data set can be described thus: Western blot (immunoblotting) of LTA in S. aureus cell extracts. Format: cell-based. As to conditions: for LTA production: Western blot of S. aureus cell extracts, 10 μM in Figure S14, 100 μM for compound 8. The protocol:
The procedures of LTA detection using Western Blot had previously been reported by Gründling et al.[52] To determine the effect of the compounds on LTA production, 10 mL cultures of S. aureus (strain RN4220) in MH2 broth were incubated in an orbital shaker at 37 °C with either the compounds or DMSO. When the control cultures had reached an OD600nm ∼ 1, the bacteria were pelleted and the OD600nm of the cultures normalized by resuspension with the appropriate amount of MH2 broth. Subsequently, 1 mL from each cultures was mixed with 0.5 mL of 0.1 mm glass beads, and the bacteria were lyzed by vortexing at 4 °C for 45 min. After lysis, glass beads were removed by centrifugation at 200g, and the supernatants were transferred to a new tube. The membrane-associated LTA from each culture were pelleted by an additional centrifugation step of the supernatant at 16,000g for 15 min before resuspension in 30 μL of 2× SDS. The samples were boiled at 80 °C for 20 min, and the solubilized fractions were loaded onto 15% SDS-polyacrylamide gels prior to electrophoresis at 120 V for 1.5 h. The LTA on the gels were electrotransferred onto FL-immobilon PVDF membranes at 25 V for another 1.5 h. After the electrotransfer, the membranes were blocked with 5% skimmed milk for 1 h and incubated with the antimouse LTA antibody (clone G43J, Thermo Fisher Scientific; 1:1000 dilution) overnight at 4 °C. After washing, the membranes were incubated with antimouse IRDye 680RD (1:10,000 dilution) for 1 h, washed, and visualized using the Odyssey CLx Imaging System.

For the next data set, the target named is T1, eLtaS (Staphylococcus aureus, UniProt Q2G093).
T1 construct: LtaS is a transmembrane protein with a large extracellular catalytic domain (denoted as eLtaS); His-tag; made in house; host or cells: E. coli (Rosetta; plasmid pProEX-eLtaS from strain ANG571)
T1 sequence (Q2G093 218-646): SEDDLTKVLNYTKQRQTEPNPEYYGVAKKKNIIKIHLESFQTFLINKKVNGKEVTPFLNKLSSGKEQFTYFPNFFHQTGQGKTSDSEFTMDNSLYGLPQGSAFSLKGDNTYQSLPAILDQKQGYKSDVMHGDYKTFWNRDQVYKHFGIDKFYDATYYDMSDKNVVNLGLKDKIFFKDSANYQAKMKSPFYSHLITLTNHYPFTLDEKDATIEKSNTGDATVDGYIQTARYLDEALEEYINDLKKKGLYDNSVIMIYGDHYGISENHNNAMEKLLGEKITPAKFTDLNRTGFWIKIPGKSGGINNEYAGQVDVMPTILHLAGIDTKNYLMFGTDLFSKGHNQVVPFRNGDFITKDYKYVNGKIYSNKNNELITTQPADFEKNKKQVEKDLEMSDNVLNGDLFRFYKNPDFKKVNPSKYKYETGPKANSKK
Kind of data set: Differential scanning fluorimetry (DSF) of eLtaS. Format: binding, S. aureus. The protocol: DSF assays were performed on eLtaS using the CFX Connect RT-PCR system (Bio-rad) using the protocol described previously.[43] Solutions containing 5 μM eLtaS protein in DSF buffer (25 mM Trizma-HCl, pH 7.5, 100 mM NaCl, 10% glycerol, 1 mM EDTA, 20× SYPRO Orange) with compounds at the appropriate concentrations were dispensed onto 96-well PCR plates in triplicate. The plates were sealed with Microseal “B” PCR Plate Sealing Film (Bio-rad) prior to the DSF run. The emitted fluorescence at 568 nm was measured from 25 to 65 °C at a step ramp rate of 0.5 °C every 30 s. Prism GraphPad v.5 was used for curve fitting, and the melting temperature Tm for each curves was derived from the Boltzmann equation.
On the technique in general: Differential scanning fluorimetry follows unfolding on heating by fluorescence.

Where [3] appears, read: Staphylococcus aureus, NEWMAN, 20 h.

As to `S=C(Nc1ccc(Cl)cc1)Nc1ccc(Sc2nc3ccccc3[nH]2)cc1` [Compound 9], the “decrease in antimicrobial potency compared with compound 8” value in data set [1] (S. aureus growth) is reported as 4 fold. For the same compound, the IC50 in data set [1] and in data set [1] (setting [3]) was 117 µM each time. The “cytotoxicity (LDH release)” value in the data set with HEK293 cells is “not cytotoxic”. For the same compound, the “electrophoretic mobility of the LTA extracted from treated S. aureus” value in data set [2] (Western blot, 100 μM compound) is listed as “smearing effect”. On eLtaS (using ITC and DSF, DSF at 100 μM compound), the “direct binding to eLtaS” value is given as “binds directly to eLtaS”.

For the compound `O=C(COC(=O)c1cn(-c2ccccc2)nc1-c1cccs1)Nc1nnc(-c2ccccc2)o1` [Compound 4], the IC50 (commonly the midpoint of a concentration-inhibition curve) was 4.06 ± 0.4 µM in data set [1] and 4.1 µM in data set [1] (setting [3]). Moreover, in data set [1] (compound 4 compared with 1771, S. aureus growth), the “improvement in antimicrobial potency” value is recorded as 4 fold. Moreover, the “cytotoxicity (LDH release)” value with HEK293 cells is on record as “non-cytotoxic”. Besides, the LTA production result in data set [2] is listed as “able to reduce LTA production”; in data set [2] (listed as compound 4) it was “decrease LTA production in a dose-dependent manner”. Further, at eLtaS (DSF, 5 μM eLtaS, across the range of concentrations tested), the “shift of the melting temperature of eLtaS” value is “shifted the melting temperature of eLtaS more so than 1771”.
